What follows are compounds tested against T1, Human thrombin (Homo sapiens, UniProt P00734) (assay: Inhibition of the protease activity of thrombin (chromogenic substrate S-2238)). Details: Table C; 3 nM thrombin, 125 μM S-2238, 10 min pre-incubation, RT.
T1 construct: purchased Haematologic Technologies Inc
Format: biochemical
For `CS(=O)(=O)n1nc(-c2cccnc2)nc1NCc1ccco1` [Cmpd 395, N-(furan-2-ylmethyl)-1-methanesulfonyl-3-(pyridin-3-yl)-1H-1,2,4-triazol-5-amine], the IC50 was > 1000 nM. For `COC(=O)c1nnc(NC(=O)c2ccc(Br)cc2)[nH]1` [Cmpd 383, methyl 5-[(4-bromobenzene)amido]-1H-1,2,4-triazole-3-carboxylate], the IC50 was > 1000 nM. For `CCOC(=O)n1nc(-c2ccc(Cl)cc2)cc1N` [Cmpd 376, ethyl 5-amino-3-(4-chlorophenyl)-1H-pyrazole-1-carboxylate], the IC50 was > 1000 nM. In the case of `CC(C)C(=O)n1nc(-c2cccnc2)nc1NCc1ccc(Cl)cc1` [Cmpd 306, 1-(5-[(4-chlorophenyl)methyl]amino-3-(pyridin-3-yl)-1H-1,2,4-triazol-1-yl)-2-methylpropan-1-one], the IC50 is reported as < 100 nM. `CC(=O)n1nc(-c2cccnc2)nc1NCc1ccco1` [Cmpd 363, 1-5-[(furan-2-ylmethyl)amino]-3-(pyridin-3-yl)-1H-1,2,4-triazol-1-ylethan-1-one] was tested, and the IC50 was < 100 nM. In the case of `CC(=O)n1nc(-c2cccnc2)nc1NCc1ccc(Cl)cc1` [Cmpd 307, 1-(5-[(4-chlorophenyl)methyl]amino-3-(pyridin-3-yl)-1H-1,2,4-triazol-1-yl)ethan-1-one], the IC50 is reported as < 100 nM. Work on `O=C(c1cccnc1)n1nc(-c2cccnc2)nc1NCc1cccs1` [Cmpd 372, 3-(pyridin-3-yl)-1-[(pyridin-3-yl)carbonyl]-N-(thiophen-2-ylmethyl)-1H-1,2,4-triazol-5-amine] yielded an IC50 of 100 to 1000 nM. For `O=C(c1ccccc1Cl)n1nc(-c2ccco2)nc1NCc1ccccc1` [Cmpd 408, N-benzyl-1-[(2-chlorophenyl)carbonyl]-3-(furan-2-yl)-1H-1,2,4-triazol-5-amine], the IC50 was < 100 nM. `O=C(c1cccnc1)n1nc(-c2ccco2)nc1NCc1ccccc1Cl` [Cmpd 397, N-[(2-chlorophenyl)methyl]-3-(furan-2-yl)-1-[(pyridin-3-yl)carbonyl]-1H-1,2,4-triazol-5-amine] showed an IC50 of 100 to 1000 nM.

Same assay, conditions: inhibition of the protease activity of thrombin
With `O=C(c1cccs1)n1nc(-c2ccncc2)nc1NCc1ccccc1` [Cmpd 288, N-benzyl-3-(pyridin-4-yl)-1-[(thiophen-2-yl)carbonyl]-1H-1,2,4-triazol-5-amine] the IC50 was < 100 nM. For `O=C(c1ccc(Cl)cc1)n1nc(-c2ccccn2)nc1NCc1ccccc1` [Cmpd 262, N-benzyl-1-[(4-chlorophenyl)carbonyl]-3-(pyridin-2-yl)-1H-1,2,4-triazol-5-amine], the IC50 was < 100 nM. In the case of `O=C(c1ccsc1)n1nc(-c2ccccc2F)cc1NCc1ccccc1` [Cmpd 279, N-benzyl-3-(2-fluorophenyl)-1-[(thiophen-3-yl)carbonyl]-1H-pyrazol-5-amine], the IC50 is reported as > 1000 nM. With `O=C(c1ccccc1Br)n1nc(-c2ccccn2)cc1NCc1ccccc1` [Cmpd 241, N-benzyl-1-[(2-bromophenyl)carbonyl]-3-(pyridin-2-yl)-1H-pyrazol-5-amine] the IC50 was 100 to 1000 nM. With `O=C(c1ccsc1)n1nc(-c2ccccn2)cc1NCc1ccccc1` [Cmpd 284, N-benzyl-3-(pyridin-2-yl)-1-[(thiophen-3-yl)carbonyl]-1H-pyrazol-5-amine] the IC50 was < 100 nM. In the case of `COc1cc(C)ccc1C(=O)n1nc(-c2ccccn2)nc1NCc1ccccc1` [Cmpd 253, N-benzyl-1-[(2-methoxy-4-methylphenyl)carbonyl]-3-(pyridin-2-yl)-1H-1,2,4-triazol-5-amine], the IC50 is reported as < 100 nM. For `COc1ccccc1C(=O)n1nc(-c2ccccc2F)cc1NCc1ccccc1` [Cmpd 278, N-benzyl-3-(2-fluorophenyl)-1-[(2-methoxyphenyl)carbonyl]-1H-pyrazol-5-amine], the IC50 was > 1000 nM. In the case of `O=C(c1ccsc1)n1nc(-c2ccccn2)nc1NCc1ccc(F)cc1` [Cmpd 219, N-[(4-fluorophenyl)methyl]-3-(pyridin-2-yl)-1-[(thiophen-3-yl)carbonyl]-1H-1,2,4-triazol-5-amine], the IC50 is reported as < 100 nM. For `Cc1c(-c2ccccc2)n[nH]c1N(Cc1ccc(F)cc1)C(=O)C(C)(C)C` [Cmpd 218, N-[(4-fluorophenyl)methyl]-2,2-dimethyl-N-(4-methyl-3-phenyl-1H-pyrazol-5-yl)propanamide], the IC50 was > 1000 nM. For `O=C(Oc1ccccc1)n1nc(-c2cccnc2)nc1NCc1ccc(F)cc1` [Cmpd 298, phenyl 5-[(4-fluorophenyl)methyl]amino-3-(pyridin-3-yl)-1H-1,2,4-triazole-1-carboxylate], the IC50 was < 100 nM. `Cc1ccccc1C(=O)n1nc(-c2ccccn2)nc1NCc1ccccc1` [Cmpd 259, N-benzyl-1-[(2-methylphenyl)carbonyl]-3-(pyridin-2-yl)-1H-1,2,4-triazol-5-amine] was tested, and the IC50 was < 100 nM. With `O=C(c1ccsc1)n1nc(-c2ccccc2)nc1NCc1ccc(F)cc1` [Cmpd 222, N-[(4-fluorophenyl)methyl]-3-phenyl-1-[(thiophen-3-yl)carbonyl]-1H-1,2,4-triazol-5-amine] the IC50 was < 100 nM. For `Cc1ccc(C(=O)n2nc(-c3ccccn3)nc2NCc2ccccc2)c(F)c1` [Cmpd 249, N-benzyl-1-[(2-fluoro-4-methylphenyl)carbonyl]-3-(pyridin-2-yl)-1H-1,2,4-triazol-5-amine], the IC50 was < 100 nM. Compound `O=C(c1ccccc1Cl)n1nc(-c2ccccc2F)cc1NCc1ccccc1` [Cmpd 242, N-benzyl-1-[(2-chlorophenyl)carbonyl]-3-(2-fluorophenyl)-1H-pyrazol-5-amine] has an IC50 of 100 to 1000 nM. `COc1ccccc1C(=O)n1nc(-c2cccs2)nc1NCc1ccccc1` [Cmpd 258, N-benzyl-1-[(2-methoxyphenyl)carbonyl]-3-(thiophen-2-yl)-1H-1,2,4-triazol-5-amine] was tested, and the IC50 was < 100 nM. In the case of `O=C(c1ccoc1)n1nc(-c2ccncc2)nc1NCc1ccc(F)cc1` [Cmpd 214, N-[(4-fluorophenyl)methyl]-1-[(furan-3-yl)carbonyl]-3-(pyridin-4-yl)-1H-1,2,4-triazol-5-amine], the IC50 is reported as < 100 nM. `O=C(c1ccsc1)n1nc(-c2cccnc2)nc1NCc1ccc(F)cc1` [Cmpd 220, N-[(4-fluorophenyl)methyl]-3-(pyridin-3-yl)-1-[(thiophen-3-yl)carbonyl]-1H-1,2,4-triazol-5-amine] was tested, and the IC50 was < 100 nM.

Same assay, conditions: inhibition of the protease activity of thrombin; class symbols a/b/c
In the case of `O=C(Nc1nc(C(=O)N2CCOCC2)n[nH]1)c1ccc(Cl)cc1` [Cmpd 184, 4-chloro-N-3-[(morpholin-4-yl)carbonyl]-1H-1,2,4-triazol-5-ylbenzamide], the IC50 is reported as > 1000 nM. In the case of `CCC(=O)c1cn(-c2ccccc2)nc1NCc1ccc(F)cc1` [Cmpd 62, 1-(3-[(4-fluorophenyl)methyl]amino-1-phenyl-1H-pyrazol-4-yl)propan-1-one], the IC50 is reported as > 1000 nM. For `Fc1ccc(CNc2nc(-c3ccccn3)n(Cc3ccccc3)n2)cc1` [Cmpd 162, 1-benzyl-N-[(4-fluorophenyl)methyl]-5-(pyridin-2-yl)-1H-1,2,4-triazol-3-amine], the IC50 was > 1000 nM. In the case of `CCC(=O)n1nc(-c2ccncc2)nc1NCc1ccccc1` [Cmpd 151, 1-[5-(benzylamino)-3-(pyridin-4-yl)-1H-1,2,4-triazol-1-yl]propan-1-one], the IC50 is reported as < 100 nM. With `CC(O)c1cc(-c2ccccn2)nn1CCc1ccc(F)cc1` (stereo not shown) [Cmpd 163, 1-1-[2-(4-fluorophenyl)ethyl]-3-(pyridin-2-yl)-1H-pyrazol-5-ylethan-1-ol] the IC50 was > 1000 nM. With `CC(C)NC(=O)n1nc(-c2cccnc2)nc1NCc1ccc(F)cc1` [Cmpd 190, 5-[(4-fluorophenyl)methyl]amino-N-(propan-2-yl)-3-(pyridin-3-yl)-1H-1,2,4-triazole-1-carboxamide] the IC50 was > 1000 nM. In the case of `CC(=O)Oc1ccccc1C(=O)n1nc(-c2ccccn2)nc1NCc1ccccc1` [Cmpd 177, 2-[5-(benzylamino)-3-(pyridin-2-yl)-1H-1,2,4-triazol-1-yl]carbonylphenyl acetate], the IC50 is reported as < 100 nM. For `CCOC(=O)n1nc(-c2cccnc2)nc1NCc1ccc(F)cc1` [Cmpd 192, ethyl 5-[(4-fluorophenyl)methyl]amino-3-(pyridin-3-yl)-1H-1,2,4-triazole-1-carboxylate], the IC50 was 100 to 1000 nM. With `COc1ccc(CNc2nc(-c3ccncc3)nn2C(=O)C(C)(C)C)cc1` [Cmpd 16] the IC50 was < 100 nM. With `COc1ccc(C(=O)n2nc(-c3ccccc3F)cc2NCc2ccccc2)c(N)c1` [Cmpd 103, 1-[(2-amino-4-methoxyphenyl)carbonyl]-N-benzyl-3-(2-fluorophenyl)-1H-pyrazol-5-amine] the IC50 was > 1000 nM. `O=C(c1ccccc1)n1nc(-c2ccccn2)nc1NCc1ccccc1` [Cmpd 159, 1-benzoyl-N-benzyl-3-(pyridin-2-yl)-1H-1,2,4-triazol-5-amine] was tested, and the IC50 was < 100 nM. With `COc1ccccc1C(=O)n1nc(-c2ccccn2)cc1NCc1ccsc1` [Cmpd 118, 1-[(2-methoxyphenyl)carbonyl]-3-(pyridin-2-yl)-N-(thiophen-3-ylmethyl)-1H-pyrazol-5-amine] the IC50 was 100 to 1000 nM. For `O=C(O)c1cn(-c2ccccn2)nc1NCc1ccc(F)cc1` [Cmpd 47], the IC50 was > 1000 nM. In the case of `CON(C)C(=O)c1cn(-c2ccccn2)nc1NCc1ccc(F)cc1` [Cmpd 48], the IC50 is reported as > 1000 nM. In the case of `CC(=O)c1cn(-c2ccccc2)nc1NCc1ccc(F)cc1` [Cmpd 61, 1-(3-[(4-fluorophenyl)methyl]amino-1-phenyl-1H-pyrazol-4-yl)ethan-1-one], the IC50 is reported as > 1000 nM. With `CN(C)C(=O)c1cc(-c2ccccn2)nn1CCc1ccc(F)cc1` [Cmpd 128, 1-[2-(4-fluorophenyl)ethyl]-N,N-dimethyl-3-(pyridin-2-yl)-1H-pyrazole-5-carboxamide] the IC50 was > 1000 nM. `COc1ccc(CNc2nc(-c3ccccn3)nn2C(=O)CCc2ccccc2)cc1` [Cmpd 91, 1-(5-[(4-methoxyphenyl)methyl]amino-3-(pyridin-2-yl)-1H-1,2,4-triazol-1-yl)-3-phenylpropan-1-one] gave an IC50 of 100 to 1000 nM. `CCC(O)c1cc(-c2ccccn2)nn1CCc1ccc(F)cc1` (stereo not shown) [Cmpd 55] was tested, and the IC50 was > 1000 nM. `CCC(=O)n1nc(-c2ccccc2)cc1NCc1ccc(F)cc1` [Cmpd 84, 1-(5-[(4-fluorophenyl)methyl]amino-3-phenyl-1H-pyrazol-1-yl)propan-1-one] was tested, and the IC50 was > 1000 nM. With `COc1ccc(CNc2nc(-c3ccccn3)nn2C(=O)Cc2ccccc2)cc1` [Cmpd 89, 1-(5-[(4-methoxyphenyl)methyl]amino-3-(pyridin-2-yl)-1H-1,2,4-triazol-1-yl)-2-phenylethan-1-one] the IC50 was < 100 nM.

From patent US20170326125A1, “MULTISUBSTITUTED AROMATIC COMPOUNDS AS INHIBITORS OF THROMBIN” (VERSEON CORPORATION, priority 2016, published 2017)
